Data taken from US9399623B2, “Quinoline derivatives and their use in neurodegenerative diseases” (Merck Patent GmbH, priority 2014, dated 2016).

What was measured:
[1] = molecular target: T1, P2X7 (Homo sapiens, UniProt Q99572); assay: Pore permeation assay (YO PRO dye uptake, BzATP-induced); type: cell-based; design: expressed in transfected cells; host or cells: HEK293; settings: HEK293 transfected with human P2X7 receptor; YO PRO dye 1 uM, BzATP 10 uM; read-out: hP2X7 IC50
T1 sequence (Q99572 1-595): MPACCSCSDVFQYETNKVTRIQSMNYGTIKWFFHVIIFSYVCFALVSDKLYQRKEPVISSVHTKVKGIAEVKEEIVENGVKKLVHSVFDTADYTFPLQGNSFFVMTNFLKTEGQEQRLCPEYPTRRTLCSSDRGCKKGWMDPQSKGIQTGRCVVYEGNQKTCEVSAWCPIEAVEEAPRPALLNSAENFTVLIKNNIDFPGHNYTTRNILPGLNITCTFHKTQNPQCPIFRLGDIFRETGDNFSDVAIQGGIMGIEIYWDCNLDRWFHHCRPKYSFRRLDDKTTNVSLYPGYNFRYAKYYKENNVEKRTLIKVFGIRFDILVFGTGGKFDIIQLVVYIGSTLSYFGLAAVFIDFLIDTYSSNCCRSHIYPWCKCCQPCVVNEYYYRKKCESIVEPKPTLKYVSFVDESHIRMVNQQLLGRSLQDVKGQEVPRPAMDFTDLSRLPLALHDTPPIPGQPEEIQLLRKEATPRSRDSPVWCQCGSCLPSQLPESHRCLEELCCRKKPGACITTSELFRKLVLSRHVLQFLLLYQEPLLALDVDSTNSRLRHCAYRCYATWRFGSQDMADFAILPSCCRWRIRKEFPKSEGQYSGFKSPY
Outline: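 HEK293 cells overexpressing human P2X7, plated overnight at 37 C, preincubated 20 min at room temperature with compound (10-point series from 2.5 uM) in HEPES-buffered saline pH 7.4 with 0.1 mM CaCl2. Then 10 uM BzATP plus 1 uM YO PRO added; dye uptake read by fluorescence after 30 min at room temperature.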

[2] = molecular target: T1, P2X7; assay: IL-1β release assay in THP-1 cells (sandwich ELISA); type: cell-based; design: release of mature IL-1β in the culture medium of THP-1 cells; endogenous in cells; host or cells: THP-1 cells (PMA-differentiated, LPS-primed); settings: PMA, LPS primed, stimulated with 0.8 mM BzATP, mature IL-1β release, read-out: hTHP-1/IL-ib IC50
Outline: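 THP-1 cells differentiated with 0.5 μM PMA and primed 4 h with 10 ng/ml LPS at 37° C, then preincubated 20 min with compound. Stimulated with 0.8 mM BzATP for 30 min; mature IL-1β released into the supernatant quantified by sandwich ELISA.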

IC50 [1] [nM] | IC50 [2] [nM] | Structure (SMILES)
10 to 100 | 10 to 100 | O=C(NCC1CCC(F)(F)CC1)c1c(Cl)ccc2nc(NCCO)ccc12 [Compound 66, 6-Chloro-2-(2-hydroxy-ethylamino)-quinoline-5-carboxylic acid (4,4-difluoro-cyclohexyl methyl)-amide]
10 to 100 | 101 to 500 | CC(=O)NC1CCN(c2ccc3c(C(=O)NCC4CCC(F)(F)CC4)c(Cl)ccc3n2)C1 (stereo not shown) [Compound 67, 2-(3-Acetylamino-pyrrolidin-1-yl)-6-chloro-quinoline-5-carboxylic acid (4,4-difluoro-cyclohexylmethyl)-amide]
10 to 100 | 500 to 999 | COCCNc1ccc2c(C(=O)NCC3CCC(F)(F)CC3)c(Cl)ccc2n1 [Compound 68, 6-Chloro-2-(2-methoxy-ethylamino)-quinoline-5-carboxylic acid (4,4-difluoro-cyclohexyl methyl)-amide]
10 to 100 | 101 to 500 | COCCCOc1ccc2c(C(=O)NCC3CCC(F)(F)CC3)c(Cl)ccc2n1 [Compound 69, 6-Chloro-2-(3-methoxy-propoxy)-quinoline-5-carboxylic acid (4,4-difluoro-cyclohexylmethyl)-amide]
10 to 100 | 101 to 500 | COCCOc1ccc2c(C(=O)NCC3CCC(F)(F)CC3)c(Cl)ccc2n1 [Compound 70, 6-Chloro-2-(2-methoxy-ethoxy)-quinoline-5-carboxylic acid (4,4-difluoro-cyclohexyl methyl)-amide]
10 to 100 | 101 to 500 | CN(CCO)c1ccc2c(C(=O)NCC3CCC(F)(F)CC3)c(Cl)ccc2n1 [Compound 73]
101 to 500 | 101 to 500 | O=C(NCC1CCC(F)(F)CC1)c1c(Cl)ccc2nc(N3CC(F)(F)C3)ccc12 [Compound 74, 6-Chloro-2-(3,3-difluoro-azetidin-1-yl)-quinoline-5-carboxylic acid (4,4-difluoro-cyclohexylmethyl)-amide]
101 to 500 | 101 to 500 | O=C(NCC1(O)CCCC(F)(F)C1)c1c(Cl)ccc2nc(N3CC(F)(F)C3)ccc12 (stereo not shown) [Compound 75, 6-Chloro-2-(3,3-difluoroazetidin-1-yl)-quinoline-5-carboxylic acid (3,3-difluoro-1-hydroxycyclohexylmethyl)-amide]
101 to 500 | 10 to 100 | O=C(NCC1(O)CCC(F)(F)CC1)c1c(Cl)ccc2ncccc12 [Compound 76]
101 to 500 | 10 to 100 | O=C(NCC1CCC(F)(F)CC1)c1c(Cl)ccc2ncccc12 [Compound 78]
101 to 500 | > 1000 | O=C(NC[C@]1(O)CCCC(F)(F)C1)c1c(Cl)ccc2nc(N3CCC(F)(F)C3)ccc12 [Compound 80, 6-Chloro-2-(3,3-difluoropyrrolidin-1-yl)-quinoline-5-carboxylic acid ((S)-3,3-difluoro-1-hydroxycyclohexylmethyl)-amide]
